Among the test systems are HOP-92 NSCLC; MOLT-4 leukemia; M14 melanoma; CAKI-1 renal; HCT-15 colon; LOX IMVI melanoma; HOP-62 NSCLC; EKVX NSCLC; K-562 leukemia; OVCAR-3 ovarian.
Common to all, as to test: growth of human tumour cells (NCI), 48 h

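All cell lines were grown in 96-well plates and treated with compound for 48 hours. TGI is the concentration that stops growth completely.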

Consider `Brc1ccc(/C(N=N/C(=N\Sc2ccccc2)c2ccc(Br)cc2)=N/Sc2ccccc2)cc1`, for which the TGI with HOP-92 NSCLC, in the assay with MOLT-4 leukemia, in the assay with M14 melanoma, in the assay on CAKI-1 renal, in the assay on HCT-15 colon and in the assay with LOX IMVI melanoma was above 100 µM each time. Moreover, the TGI with HOP-62 NSCLC, in the assay on EKVX NSCLC, with K-562 leukemia and with OVCAR-3 ovarian was above 100 µM throughout.
In the case of `Cn1c2ccccc2c2c3c(=O)[nH][nH]c(=O)c3c3c4ccccc4n(C)c3c21`, the TGI in the assay on HOP-92 NSCLC, with MOLT-4 leukemia, in the assay on M14 melanoma, in the assay with CAKI-1 renal, with HCT-15 colon and in the assay on LOX IMVI melanoma was above 100 µM in each case. Further, the TGI in the assay with HOP-62 NSCLC, in the assay with EKVX NSCLC, with K-562 leukemia and in the assay with OVCAR-3 ovarian was above 100 µM in each case.
In the case of `COc1ccc2c(c1)-c1nc(=S)n(CCN(C)C)c3ccc([N+](=O)[O-])c(c13)N2`, the TGI in the assay on HOP-92 NSCLC is 27.7 µM; with MOLT-4 leukemia it was 0.741 µM; in the assay with M14 melanoma it was 7.43 µM; in the assay on CAKI-1 renal, 7.61 µM; with HCT-15 colon, 4.76 µM; in the assay with LOX IMVI melanoma it was 2.29 µM. Moreover, the TGI in the assay on HOP-62 NSCLC was found to be 2.24 µM; in the assay on EKVX NSCLC, 7.29 µM; in the assay with K-562 leukemia, 2.13 µM; in the assay on OVCAR-3 ovarian it was 19.3 µM.
Turning to `CC(C)(C)[Si](C)(C)OC1CCOC1(O)c1ccccn1` (centres undefined), the TGI in the assay with HOP-92 NSCLC, in the assay with MOLT-4 leukemia, in the assay on M14 melanoma, in the assay on CAKI-1 renal, with HCT-15 colon and in the assay with LOX IMVI melanoma was above 100 µM in each case. Besides, the TGI in the assay on HOP-62 NSCLC, in the assay with EKVX NSCLC, in the assay on K-562 leukemia and in the assay on OVCAR-3 ovarian was above 100 µM in each case.
Consider `CN(C)CN1C(=O)/C(=N\n2c(-c3ccncc3)n[nH]c2=S)c2ccccc21`, for which the TGI in the assay on HOP-92 NSCLC is above 100 µM; in the assay with MOLT-4 leukemia it was 45.4 µM; with M14 melanoma, 70.4 µM; with CAKI-1 renal it was above 100 µM; with HCT-15 colon it was above 100 µM; with LOX IMVI melanoma, 62.2 µM. Moreover, the TGI is 84.7 µM with HOP-62 NSCLC, above 100 µM with EKVX NSCLC, above 100 µM in the assay on K-562 leukemia and above 100 µM in the assay on OVCAR-3 ovarian.
For `CC(C)(C)C#CI1OC(=O)c2ccccc21`, the TGI in the assay on HOP-92 NSCLC worked out at 5.78 µM; in the assay with MOLT-4 leukemia, 10 µM; in the assay on M14 melanoma, 15.3 µM; in the assay on CAKI-1 renal, 7.21 µM; in the assay with HCT-15 colon, 11.6 µM; with LOX IMVI melanoma, 3.89 µM. Moreover, the TGI was found to be 27.2 µM in the assay with HOP-62 NSCLC, 17.5 µM with EKVX NSCLC, 11.7 µM with K-562 leukemia and 8.84 µM in the assay on OVCAR-3 ovarian.
`O=c1cccc2n1CC1CNCC2C1` (centres undefined): the TGI with HOP-92 NSCLC, in the assay on MOLT-4 leukemia, in the assay with M14 melanoma, in the assay with CAKI-1 renal, in the assay on HCT-15 colon and in the assay with LOX IMVI melanoma was above 100 µM in each case. Besides, the TGI in the assay with HOP-62 NSCLC, in the assay with EKVX NSCLC, in the assay on K-562 leukemia and with OVCAR-3 ovarian was above 100 µM each time.
As to `Brc1ccc2[nH]cc(-c3csc(-c4c[nH]c5ccc(Br)cc45)n3)c2c1`, the TGI in the assay on HOP-92 NSCLC came out at 4.64 µM; in the assay with MOLT-4 leukemia it was 3.45 µM; in the assay with M14 melanoma, 2.87 µM; in the assay with CAKI-1 renal, 5.31 µM; in the assay with HCT-15 colon, 4.5 µM; with LOX IMVI melanoma, 3.21 µM. The TGI with HOP-62 NSCLC came to 13.7 µM; with EKVX NSCLC it was 3.93 µM; in the assay with K-562 leukemia, 3.43 µM; in the assay with OVCAR-3 ovarian, 6.95 µM.
Turning to `COC(=O)Cc1c2n(c3ccccc13)C(=O)N1c3ccccc3C(CC(=O)OC)C21` (centres undefined), the TGI in the assay on HOP-92 NSCLC was 27.5 µM; in the assay on MOLT-4 leukemia, above 100 µM; in the assay with CAKI-1 renal, above 100 µM; with HCT-15 colon, above 100 µM; with LOX IMVI melanoma, above 100 µM; with HOP-62 NSCLC, 38.5 µM. In addition, the TGI in the assay with EKVX NSCLC, in the assay with K-562 leukemia and in the assay with OVCAR-3 ovarian was above 100 µM each time.
On to `C[C@@](Br)(C(=O)O)[C@H](Br)C(=O)O`, for which the TGI in the assay on HOP-92 NSCLC, in the assay on MOLT-4 leukemia, in the assay on M14 melanoma, with CAKI-1 renal, in the assay with HCT-15 colon and in the assay on LOX IMVI melanoma was above 100 µM each time. Besides, the TGI with HOP-62 NSCLC, in the assay with EKVX NSCLC, in the assay with K-562 leukemia and in the assay with OVCAR-3 ovarian was above 100 µM each time.
`COC(=O)c1ccc2cc(O)ccc2c1`: the TGI in the assay on HOP-92 NSCLC, with MOLT-4 leukemia, with M14 melanoma, in the assay with CAKI-1 renal, with HCT-15 colon and with LOX IMVI melanoma was above 100 µM each time. The TGI with HOP-62 NSCLC, in the assay with EKVX NSCLC, in the assay with K-562 leukemia and in the assay with OVCAR-3 ovarian was above 100 µM each time.
For `OC(CCN1CCN(CCOC(c2ccc(F)cc2)c2ccc(F)cc2)CC1)c1ccc(Br)cc1` (centres undefined), the TGI in the assay with HOP-92 NSCLC was found to be 13.7 µM; with MOLT-4 leukemia, 7.73 µM; in the assay with M14 melanoma, 3.86 µM; with CAKI-1 renal, 5.71 µM; with HCT-15 colon it was 8.25 µM; with LOX IMVI melanoma, 4.07 µM. Besides, the TGI in the assay on HOP-62 NSCLC is 14.5 µM; in the assay with EKVX NSCLC, 17.7 µM; with K-562 leukemia, 7 µM; in the assay on OVCAR-3 ovarian, 9.66 µM.
Take `O=C(O)Cn1c[n+](NC(=O)Cc2ccccc2)cn1`: the TGI with HOP-92 NSCLC, in the assay on MOLT-4 leukemia, with M14 melanoma, in the assay with CAKI-1 renal, in the assay with HCT-15 colon and in the assay with LOX IMVI melanoma was above 10 µM throughout. The TGI with HOP-62 NSCLC, with EKVX NSCLC, in the assay with K-562 leukemia and in the assay on OVCAR-3 ovarian was above 10 µM throughout.

Source of the values: PubChem BioAssay (NCI).
